Converted amounts (≈) assume the structure as drawn. Where two headings read alike, the source gives them in different places.
Tests used:
Experiment in all cases: MIC, agar dilution
Assay type in all cases: cell-based
[1] = test system: S. aureus Smith; details: Staphylococcus aureus; S. aureus Smith; Mueller-Hinton agar pH 7.2; 32° C., 18 hr; 10^6 cells/ml; read-out: MIC
Method in brief: (§1)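 Two-fold serial agar dilution in Mueller-Hinton agar (pH 7.2), inoculum 10^6 cells/ml, incubated 32° C for 18 hr. In vivo protection measured as PD50 in mice dosed intramuscularly just after bacterial challenge.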

[2] = test system: P. aeruginosa A9843A; details: Pseudomonas aeruginosa, A9843A, 18 h, pH 7.2
Method in brief: as §1

[3] = test system: E. coli Juhl A15119; details: Escherichia coli, JUHLA15119; E. coli Juhl A15119; Mueller-Hinton agar pH 7.2; 32° C., 18 hr; 10^6 cells/ml; read-out: MIC
Method in brief: as §1

[4] = test system: C. terrigena IFO 12685; details: Mueller-Hinton agar pH 7.2, 32° C., 18 hr, 10^6 cells/ml
Procedure: (§2) Minimum inhibitory concentrations (MICs) of the present series of cephalosporins were determined against 32 strains of test organisms by two-fold serial agar dilution method in Mueller-Hinton agar. Geometric means of MICs were calculated against six groups of the test organisms which are classified as follows and summarized in Table 1.
(§3) Medium; MuellerHinton agar (pH = 7.2)
(§4) Incubation temperature: 32° C., 18 hr
(§5) Inoculum size; 10^6 cells/ml

[5] = test system: S. aureus 209P; details: Staphylococcus aureus
Procedure: as §2, §3, §4, §5

[6] = test system: P. mirabilis IFO-2849; details: Proteus mirabilis, IFO2849, Mueller-Hinton agar pH 7.2, 32° C., 18 hr, 10^6 cells/ml
Procedure: as §2, §3, §4, §5

[7] = test system: P. aeruginosa KKA 19; details: Pseudomonas aeruginosa, KKA19, Mueller-Hinton agar pH 7.2, 32° C., 18 hr, 10^6 cells/ml
Procedure: as §2, §3, §4, §5

[8] = test system: K. pneumoniae PCI 602; details: Klebsiella pneumoniae, PCI602, Mueller-Hinton agar pH 7.2, 32° C., 18 hr, 10^6 cells/ml
Procedure: as §2, §3, §4, §5

[9] = test system: P. rettgeri IPM-14; details: Providencia rettgeri, IPM14, Mueller-Hinton agar pH 7.2, 32° C., 18 hr, 10^6 cells/ml
Procedure: as §2, §3, §4, §5

[10] = test system: S. aureus 4-1015 (MRSA); details: Staphylococcus aureus, Mueller-Hinton agar pH 7.2, 32° C., 18 hr, 10^6 cells/ml
Procedure: as §2, §3, §4, §5

[11] = test system: E. coli 255; details: Escherichia coli, Mueller-Hinton agar pH 7.2, 32° C., 18 hr, 10^6 cells/ml
Procedure: as §2, §3, §4, §5

[12] = test system: S. epidermidis 11-1230; details: Staphylococcus epidermidis, 111230, Mueller-Hinton agar pH 7.2, 32° C., 18 hr, 10^6 cells/ml
Procedure: as §2, §3, §4, §5

[13] = test system: S. epidermidis 11-1168; details: Staphylococcus epidermidis, 111168, Mueller-Hinton agar pH 7.2, 32° C., 18 hr, 10^6 cells/ml
Procedure: as §2, §3, §4, §5

[14] = test system: P. aeruginosa IPM-9; details: Pseudomonas aeruginosa, IPM9, Mueller-Hinton agar pH 7.2, 32° C., 18 hr, 10^6 cells/ml
Procedure: as §2, §3, §4, §5

[15] = test system: P. aeruginosa A20599; details: Pseudomonas aeruginosa, Mueller-Hinton agar pH 7.2, 32° C., 18 hr, 10^6 cells/ml
Procedure: as §2, §3, §4, §5

[16] = test system: S. aureus IPM-24 (MRSA); details: Staphylococcus aureus, Mueller-Hinton agar pH 7.2, 32° C., 18 hr, 10^6 cells/ml
Procedure: as §2, §3, §4, §5

[17] = test system: E. cloacae IPM-12; details: Enterobacter cloacae, IPM12, Mueller-Hinton agar pH 7.2, 32° C., 18 hr, 10^6 cells/ml
Procedure: as §2, §3, §4, §5

[18] = test system: M. morgani 1510/9; details: Mueller-Hinton agar pH 7.2, 32° C., 18 hr, 10^6 cells/ml
Procedure: as §2, §3, §4, §5

[19] = test system: S. marcescens IPM-15; details: Serratia marcescens, IPM15, Mueller-Hinton agar pH 7.2, 32° C., 18 hr, 10^6 cells/ml
Procedure: as §2, §3, §4, §5

[20] = test system: P. cepacia No. 651; details: Burkholderia cepacia, Mueller-Hinton agar pH 7.2, 32° C., 18 hr, 10^6 cells/ml
Procedure: as §2, §3, §4, §5

[21] = test system: C. freundii GN 7391; details: Citrobacter freundii, GN7391, Mueller-Hinton agar pH 7.2, 32° C., 18 hr, 10^6 cells/ml
Procedure: as §2, §3, §4, §5

[22] = test system: E. faecium A24817; details: Enterococcus faecium, Mueller-Hinton agar pH 7.2, 32° C., 18 hr, 10^6 cells/ml
Procedure: as §2, §3, §4, §5

[23] = test system: E. faecalis A9808; details: Enterococcus faecalis, Mueller-Hinton agar pH 7.2, 32° C., 18 hr, 10^6 cells/ml
Procedure: as §2, §3, §4, §5

[24] = test system: X. maltophilia GN 12873; details: Stenotrophomonas maltophilia, GN12873, Mueller-Hinton agar pH 7.2, 32° C., 18 hr, 10^6 cells/ml
Procedure: as §2, §3, §4, §5

[25] = test system: M. morgani 1510; details: Mueller-Hinton agar pH 7.2, 32° C., 18 hr, 10^6 cells/ml
Procedure: as §2, §3, §4, §5

[26] = test system: P. vulgaris IPM-13; details: Proteus vulgaris, IPM13, Mueller-Hinton agar pH 7.2, 32° C., 18 hr, 10^6 cells/ml
Procedure: as §2, §3, §4, §5

[27] = test system: B. subtilis PCI 219; details: Bacillus subtilis, PCI219, Mueller-Hinton agar pH 7.2, 32° C., 18 hr, 10^6 cells/ml
Procedure: as §2, §3, §4, §5

[28] = test system: X. maltophilia No. 661; details: Stenotrophomonas maltophilia, Mueller-Hinton agar pH 7.2, 32° C., 18 hr, 10^6 cells/ml
Procedure: as §2, §3, §4, §5

[29] = test system: S. marcescens IPM-16; details: Serratia marcescens, IPM16, Mueller-Hinton agar pH 7.2, 32° C., 18 hr, 10^6 cells/ml
Procedure: as §2, §3, §4, §5

[30] = test system: M. luteus 1001; details: Micrococcus luteus, Mueller-Hinton agar pH 7.2, 32° C., 18 hr, 10^6 cells/ml
Procedure: as §2, §3, §4, §5

[31] = test system: P. aeruginosa IPM-8; details: Pseudomonas aeruginosa, IPM8, Mueller-Hinton agar pH 7.2, 32° C., 18 hr, 10^6 cells/ml
Procedure: as §2, §3, §4, §5

[32] = test system: P. cepacia A21213; details: Burkholderia cepacia, Mueller-Hinton agar pH 7.2, 32° C., 18 hr, 10^6 cells/ml
Procedure: as §2, §3, §4, §5

Structure (SMILES) | MIC [1] | MIC [2] | MIC [3] | MIC [4] | MIC [6] | MIC [7] | MIC [8] | MIC [9] | MIC [10] | MIC [11] | MIC [12] | MIC [13] | MIC [14] | MIC [15] | MIC [16] | MIC [17] | MIC [18] | MIC [19] | MIC [20] | MIC [21] | also measured
Nc1nc(/C(=N/O)C(=O)NC2C(=O)N3C(C(=O)O)=C(/C=C/Cn4cnc5cc(O)c(O)cc54)CS[C@H]23)cs1 (stereo partly shown) [Ir, 7-[(Z)-2-(2-Aminothiazol-4-yl)-2-hydroxyiminoacetamido]-3-[(E)-3-(5,6-dihydroxybenzimidazol-1-yl)-1-propen-1-yl]-3-cephem-4-carboxylic acid] | 1.6 µg/mL (≈ 2.87 µM) | 6.3 µg/mL (≈ 11.3 µM) | 0.4 µg/mL (≈ 0.717 µM) | 3.1 µg/mL (≈ 5.56 µM) | 0.8 µg/mL (≈ 1.43 µM) | 12.5 µg/mL (≈ 22.4 µM) | 0.1 µg/mL (≈ 0.179 µM) | 3.1 µg/mL (≈ 5.56 µM) | 12.5 µg/mL (≈ 22.4 µM) | 0.8 µg/mL (≈ 1.43 µM) | 12.5 µg/mL (≈ 22.4 µM) | 12.5 µg/mL (≈ 22.4 µM) | > 100 µg/mL | 12.5 µg/mL (≈ 22.4 µM) | 100 µg/mL (≈ 179 µM) | > 100 µg/mL | 0.8 µg/mL (≈ 1.43 µM) | 100 µg/mL (≈ 179 µM) | > 100 µg/mL | 50 µg/mL (≈ 89.7 µM) | MIC ([5]; 209P, 18 h, pH 7.2): 3.1 µg/mL (≈ 5.56 µM); MIC [22]: > 100 µg/mL; MIC [23]: 12.5 µg/mL (≈ 22.4 µM); MIC [24]: > 100 µg/mL; MIC [25]: 25 µg/mL (≈ 44.8 µM); MIC [26]: > 100 µg/mL; MIC [27]: 1.6 µg/mL (≈ 2.87 µM); MIC [28]: > 100 µg/mL; MIC [29]: > 100 µg/mL; MIC [30]: 0.8 µg/mL (≈ 1.43 µM); MIC [31]: 3.1 µg/mL (≈ 5.56 µM); MIC [32]: > 100 µg/mL
Nc1nc(/C(=N/O)C(=O)NC2C(=O)N3C(C(=O)O)=C(/C=C/Cn4ccc5cc(=O)c(O)cc-5c4)CS[C@H]23)cs1 (stereo partly shown) [Is, 7-[(Z)-2-(2-Aminothiazol-4-yl)-2-hydroxyiminoacetamido]-3-[(E)-3-(2,6-dihydro-7-hydroxy-6-oxo-isoquinolin-2-yl)-1-propen-1-yl]-3-cephem-4-carboxylic acid] | 0.8 µg/mL (≈ 1.41 µM) | > 100 µg/mL | 0.2 µg/mL (≈ 0.352 µM) | 1.6 µg/mL (≈ 2.81 µM) | 0.4 µg/mL (≈ 0.703 µM) | > 100 µg/mL | 0.1 µg/mL (≈ 0.176 µM) | 1.6 µg/mL (≈ 2.81 µM) | 3.1 µg/mL (≈ 5.45 µM) | 0.4 µg/mL (≈ 0.703 µM) | 3.1 µg/mL (≈ 5.45 µM) | 6.3 µg/mL (≈ 11.1 µM) | > 100 µg/mL | > 100 µg/mL | 12.5 µg/mL (≈ 22 µM) | > 100 µg/mL | 0.2 µg/mL (≈ 0.352 µM) | > 100 µg/mL | > 100 µg/mL | > 100 µg/mL | MIC ([5]; S. aureus 209P, Mueller-Hinton agar pH 7.2, 32° C., 18 hr, 10^6 cells/ml, read-out: MIC): 0.8 µg/mL (≈ 1.41 µM); MIC [22]: 100 µg/mL (≈ 176 µM); MIC [23]: 6.3 µg/mL (≈ 11.1 µM); MIC [24]: > 100 µg/mL; MIC [25]: 12.5 µg/mL (≈ 22 µM); MIC [26]: > 100 µg/mL; MIC [27]: 0.8 µg/mL (≈ 1.41 µM); MIC [28]: > 100 µg/mL; MIC [29]: > 100 µg/mL; MIC [30]: 0.4 µg/mL (≈ 0.703 µM); MIC [31]: > 100 µg/mL; MIC [32]: > 100 µg/mL
